Experimental data as given in ChEMBL document CHEMBL4043116, “KBE009: An antimalarial bestatin-like inhibitor of the Plasmodium falciparum M1 aminopeptidase discovered in an Ugi multicomponent reaction-derived peptidomimetic library” (Bioorg Med Chem, 2017).
The source made the active and inactive calls. Unless noted, no cut-off for these calls is given here.

Experiments:
[1] = test system: Plasmodium falciparum; assay: Inhibition of recombinant Plasmodium falciparum M1 aminopeptidase assessed as residual activity at 20 uM using Ala-AMC as substrate pretreated for 30 mins followed by substrate addition by fluorescence assay relative to control
[2] = test system: Plasmodium falciparum; assay: Antimalarial activity against synchronized ring stage of […] Plasmodium falciparum 3D7 infected in human erythrocytes assessed as parasite growth at 25 uM after 72 hrs by YOYO-1 staining based flow cytometric analysis relative to control; type: functional
[3] = test system: Plasmodium falciparum; assay: Antimalarial activity against synchronized ring stage of […] Plasmodium falciparum 3D7 infected in human erythrocytes assessed as parasite growth at 25 uM after 48 hrs by Giemsa staining based microscopic analysis; type: functional, cell-based
[4] = test system: Erythrocyte; assay: Hemolytic activity against human erythrocytes at 25 uM measured after 48 hrs; type: ADME, cell-based
[5] = test system: Plasmodium falciparum; assay: (§1) Antimalarial activity against asynchronized chloroquine-resistant Plasmodium falciparum FcB1/Columbia assessed as reduction in [3H]-hypoxanthine incorporation by measuring parasite growth at 50 uM pretreated for 24 hrs followed by [3H]-hypoxanthine addition after 24 hrs by microbeta scintillation counting analysis relative to control; type: functional; set-up: scale not given: the % may be the effect or the level left
[6] = test system: Plasmodium falciparum; assay: as §1, with “5” for “50”; type: functional; set-up: scale not given: the % may be the effect or the level left
[7] = Inhibition of recombinant Plasmodium falciparum M1 aminopeptidase using Ala-AMC as substrate pretreated for 30 mins followed by substrate addition by fluorescence assay
[8] = test system: Plasmodium falciparum; assay: Antimalarial activity against synchronized ring stage of […] Plasmodium falciparum 3D7 infected in human erythrocytes after 48 hrs by Giemsa staining based microscopic analysis; type: functional, cell-based; details: for IC50: 3D7, 48 h
[9] = test system: Plasmodium falciparum; assay: Antimalarial activity against asynchronized chloroquine-resistant Plasmodium falciparum FcB1/Columbia assessed as reduction in [3H]-hypoxanthine incorporation pretreated for 24 hrs followed by [3H]-hypoxanthine addition after 24 hrs by microbeta scintillation counting analysis; type: functional
[10] = target: T1, Aminopeptidase N (Sus scrofa) (UniProt P15145); assay: Inhibition of porcine kidney cortex aminopeptidase N up to 100 uM using Leu-p-nitroanilide as substrate […]
T1 sequence (whole entry): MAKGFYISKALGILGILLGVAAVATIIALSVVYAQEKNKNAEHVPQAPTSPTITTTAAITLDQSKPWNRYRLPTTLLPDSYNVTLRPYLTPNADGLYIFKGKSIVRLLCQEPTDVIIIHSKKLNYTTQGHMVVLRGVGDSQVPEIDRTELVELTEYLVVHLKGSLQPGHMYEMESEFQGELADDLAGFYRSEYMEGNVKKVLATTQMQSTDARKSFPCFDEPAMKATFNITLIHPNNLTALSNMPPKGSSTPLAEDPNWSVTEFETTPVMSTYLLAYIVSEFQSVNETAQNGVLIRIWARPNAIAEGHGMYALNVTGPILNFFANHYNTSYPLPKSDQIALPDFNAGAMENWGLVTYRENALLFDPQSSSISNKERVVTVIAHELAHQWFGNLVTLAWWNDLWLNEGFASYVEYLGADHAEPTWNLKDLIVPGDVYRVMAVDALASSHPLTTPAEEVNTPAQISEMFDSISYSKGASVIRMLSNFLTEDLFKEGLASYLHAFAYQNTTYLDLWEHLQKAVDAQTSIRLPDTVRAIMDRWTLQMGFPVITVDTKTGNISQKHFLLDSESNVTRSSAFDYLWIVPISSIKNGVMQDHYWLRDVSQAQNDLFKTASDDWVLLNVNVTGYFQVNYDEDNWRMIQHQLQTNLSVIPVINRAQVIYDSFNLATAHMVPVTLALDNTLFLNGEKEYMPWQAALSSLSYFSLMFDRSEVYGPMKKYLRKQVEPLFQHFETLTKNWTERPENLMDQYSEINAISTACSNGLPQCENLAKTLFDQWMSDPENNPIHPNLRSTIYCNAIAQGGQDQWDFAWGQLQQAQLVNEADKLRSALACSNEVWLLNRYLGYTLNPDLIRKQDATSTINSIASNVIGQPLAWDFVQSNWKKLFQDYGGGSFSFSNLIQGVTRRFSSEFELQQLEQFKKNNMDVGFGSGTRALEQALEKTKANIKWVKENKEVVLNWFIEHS

[11] = Selectivity index, ratio of Ki for recombinant Plasmodium falciparum M1 aminopeptidase to Ki for porcine kidney cortex aminopeptidase N
[12] = test system: HUVEC; assay: Cytotoxicity against HUVEC assessed as reduction in cell viability up to 200 uM by MTT assay; type: cell-based; details: human
[13] = Inhibition of Plasmodium falciparum M1 aminopeptidase using Ala-AMC as substrate by spectrofluorimetric assay
[14] = test system: Plasmodium falciparum; assay: Inhibition of Plasmodium falciparum M1 aminopeptidase at 20 uM using Arg-AMC as substrate measured after 5 mins by fluorescence assay relative to control
[15] = target: T2, Aminopeptidase N (Sus scrofa, UniProt P15145); assay: Inhibition of porcine kidney cortex aminopeptidase N using Leu-p-nitroanilide as substrate pretreated for 30 mins followed by substrate addition […]
T2 sequence (P15145 whole entry): T1 sequence (whole entry)

[16] = test system: Plasmodium falciparum; assay: Inhibition of Plasmodium falciparum M1 aminopeptidase at 200 uM using Ala-AMC as substrate by spectrofluorimetric assay
[17] = test system: Plasmodium falciparum; assay: Antimalarial activity against synchronized ring stage of […] Plasmodium falciparum 3D7 infected in human erythrocytes assessed as parasite growth at 1 uM after 72 hrs by YOYO-1 staining based flow cytometric analysis relative to control; type: functional

Row | Compound | Activity [1] | Activity [2] | Activity [3] | Activity [4] | Activity [5] | Activity [6] | also measured
1 | CC[C@H](C)[C@H](NC(C(=O)NC1CCCCC1)c1ccccc1)C(=O)O (stereo partly specified) | 96% | 77% | Active | Non-Toxic | 39.5 - 41.5% | 84.5 - 92.5% | 
2 | O=C(CN[C@@H](Cc1ccccc1)C(=O)O)NCc1ccccc1 | 23% | 38% | Active | Non-Toxic |  |  | Ki [7]: 0.9 µM; inhibition [8]: Active
3 | CC(C)C[C@@H](C(=O)O)N(C(=O)[C@@H](N)Cc1ccccc1)C(C(=O)NCc1ccccc1)c1ccco1 (stereo partly specified) | 48% | 54% | Active | Non-Toxic | 2.5 - 4.5% | 83.5 - 93.5% | Ki [7]: 0.4 µM; IC50 [9]: 16 µM; IC50 [8]: 18 µM; inhibition [10]: inactive; Ratio Ki [11]: > 250; Activity [12]: Non-Toxic; IC50 [13]: 82 µM
4 | COc1ccc(C(C(=O)NC(C)(C)C)N(C(=O)[C@@H](N)Cc2ccccc2)[C@@H](CC(C)C)C(=O)O)cc1OC (stereo partly specified) | 48% | 95% | Active | Non-Toxic | 42.5 - 99% | 56 - 99% | 
5 | CC(C)C[C@@H](C(=O)O)N(CC(=O)NC(C)(C)C)C(=O)[C@@H](N)Cc1ccccc1 | 97% | 45% | Active | Non-Toxic | 48.1 - 79.5% | 87.5 - 91.5% | 
6 | CC[C@H](C)[C@H](NCC(=O)NC1CCCCC1)C(=O)O | 100% | 93% | Active | Non-Toxic | 1.5 - 4.5% | 79.5 - 86.5% | 
7 | CC(C)C[C@H](N)C(=O)N(CC(=O)NC(C)(C)C)[C@@H](Cc1ccccc1)C(=O)O | 61% | 87% | Active | Non-Toxic | 71 - 83.5% | 92.5 - 99% | 
8 | CC(C)C[C@H](NC(C(=O)NC1CCCCC1)c1cccnc1)C(=O)O (stereo partly specified) | 94% | 96% | Active | Non-Toxic |  |  | 
9 | O=C(NC1CCCCC1)C(c1ccccc1)N1CCC[C@H]1C(=O)O (stereo partly specified) | 100% | 90% | Active | Non-Toxic |  |  | 
10 | CC(C)C[C@@H](C(=O)O)N(C(=O)[C@@H](N)Cc1ccccc1)C(C(=O)NC(C)(C)C)c1ccco1 (stereo partly specified) | 42% | 96% | Active | Non-Toxic | 81.5 - 95% | 94.5 - 99% | 
11 | CC(C)C[C@H](NC(=O)[C@@H](O)[C@H](N)Cc1ccccc1)C(=O)O [UBENIMEX] | 1.2% | 36% |  | Non-Toxic |  |  | Ki [7]: < 0.16 µM; IC50 [9]: 3.3 µM; IC50 [8]: 21 µM; inhibition [14]: 50%; IC50 [13]: < 0.31 µM
12 | O=C(CN1CCC[C@H]1C(=O)O)NC1CCCCC1 | 98% | 82% | Active | Non-Toxic |  |  | 
13 | O=C(NC1CCCCC1)C(c1cccnc1)N1CCC[C@H]1C(=O)O (stereo partly specified) | 99% | 83% | Active | Non-Toxic |  |  | 
14 | CC(C)C[C@@H](C(=O)O)N(C(=O)[C@@H](N)Cc1ccccc1)C(C(=O)NCc1ccccc1)c1ccccc1 (stereo partly specified) | 83% | 66% | Active | Non-Toxic | 39 - 55.5% | 65 - 90% | 
15 | O=C(NC1CCCCC1)C(N[C@@H](Cc1ccccc1)C(=O)O)c1ccccc1 (stereo partly specified) | 24% | 42% | Active | Non-Toxic |  |  | Ki [7]: 1.9 µM; IC50 [8]: 26 µM
16 | CC(C)C[C@@H](C(=O)O)N(C(=O)[C@@H](N)Cc1ccccc1)C(C(=O)NCC(=O)O)c1ccccc1 (stereo partly specified) | 73% | 88% | Active | Non-Toxic | 89 - 97.5% | 97 - 99% | 
17 | CC(C)C[C@H](N)C(=O)N(CC(=O)NCc1ccccc1)[C@H](C(=O)O)C(C)C | 85% | 65% | Active | Non-Toxic | 67 - 78% | 76.5 - 79% | 
18 | O=C(CN[C@@H](Cc1c[nH]c2ccccc12)C(=O)O)NC1CCCCC1 | 29% | 43% | Active | Non-Toxic | 31 - 39.5% | 83 - 92.5% | Ki [7]: 4.3 µM; IC50 [9]: 37 µM; IC50 [8]: 25 µM; Ki [15]: 24 µM; Ratio Ki [11]: 5.6
19 | CC(C)C[C@@H](C(=O)O)N(CC(=O)NCc1ccccc1)C(=O)[C@@H](N)Cc1ccccc1 | 91% | 89% | Active | Non-Toxic | 79 - 100% | 91 - 93.5% | 
20 | CC(C)C[C@@H](C(=O)O)N(C(=O)[C@@H](N)Cc1ccccc1)C(C(=O)NC(C)(C)C)c1ccccc1 (stereo partly specified) | 69% | 30% | Active | Non-Toxic | 2 - 2.5% | 49 - 100% | inhibition [16]: inactive
21 | CC(C)C[C@@H](C(=O)O)N(C(=O)[C@@H](N)Cc1ccccc1)C(C(=O)NC(C)(C)C)c1cccnc1 (stereo partly specified) | 64% | 86% | Active | Non-Toxic | 1 - 11.5% | 16 - 99% | 
22 | COc1ccc(C(N[C@@H](CC(C)C)C(=O)O)C(=O)NC2CCCCC2)cc1OC (stereo partly specified) | 98% | 41% | Active | Non-Toxic |  |  | 
23 | CCN(CC)CCCC(C)Nc1ccnc2cc(Cl)ccc12 (stereo unspecified) [CHLOROQUINE] |  |  |  |  |  |  | Activity [17]: 25.9%
24 | CC(C)C[C@H](NCC(=O)NC1CCCCC1)C(=O)O | 96% | 60% | Active | Non-Toxic | 69 - 90% | 97 - 99% | 
25 | CC(C)C[C@H](NC(C(=O)NC1CCCCC1)c1ccccc1)C(=O)O (stereo partly specified) | 40% | 82% | Active | Non-Toxic | 15.5 - 23% | 85.5 - 93% | 
26 | O=C(CN[C@@H](Cc1ccccc1)C(=O)O)NC1CCCCC1 | 48% | 53% | Active | Non-Toxic | 21.5 - 56% | 84.5 - 99% | Ki [7]: 6.1 µM; IC50 [9]: 29 µM; IC50 [8]: 37 µM; Ki [15]: 21 µM; Ratio Ki [11]: 3.4
